IC50 data for 25 compounds are collected here from patent publication US20090311217A1, “3-SUBSTITUTED-1H-INDOLE COMPOUNDS, THEIR USE AS MTOR KINASE AND PI3 KINASE INHIBITORS, AND THEIR SYNTHESES” (priority 2008, published 2009).

One experiment deals with PI3K-alpha (Homo sapiens, UniProt P42336). The experiment is described as follows: PI3K-alpha fluorescence polarization assay. Conditions: read-out: PI3Kα Avg. IC50. It is filed as biochemical.
A further experiment concerns the target PI3K-gamma (Homo sapiens, UniProt P48736). The experiment is described as follows: PI3K-gamma fluorescence polarization assay. It is filed as biochemical. Conditions: PI3Kγ Avg. IC50. Here is the method:
PI3K-Alpha, PI3K-Beta, PI3K-Gamma, and PI3K-delta Fluorescence Polarization Assay Protocols
PI3-Kinase reactions were performed in 5 mM HEPES, pH 7, 2.5 mM MgCl2, and 25 μM ATP, with diC8-PI(4,5)P2 (Echelon, Salt Lake City Utah) as substrate. Nunc 384-well black polypropylene fluorescent plates were used for PI3K assays. Reactions were quenched by the addition of EDTA to a final concentration of 10 mM. Final reaction volumes were 10 μl. For evaluation of PI3K inhibitors, 5 ng of enzyme (PI3K-alpha, beta, gamma, or delta) and 2.5 μM of substrate was used per […] reaction volume, and inhibitor concentrations ranged from 100 μM to 20 μM; the final level of DMSO in reactions never exceeded 2%. Reactions were allowed to proceed for one hour at 25° C. After 1 hour, GST-tagged GRP1 (general receptor for phosphoinositides) PH domain fusion protein was added to a final concentration of 100 nM, and BODIPY-TMRI(1,3,4,5)P4 (Echelon) was also added to a final concentration of 5 nM. Final sample volumes were 25 μl with a final DMSO concentration of 0.8%. Assay Plates were read on Perkin-Elmer Envision plate readers with appropriate filters for Tamra [BODIPY-TMRI(1,3,4,5)P4]. Data obtained were used to calculate enzymatic activity and enzyme inhibition by inhibitor compounds.
On the technique in general: Polarisation of emitted light reports the rotation of a fluorescent probe.

Chain of PI3K-alpha (P42336 whole entry, species assumed): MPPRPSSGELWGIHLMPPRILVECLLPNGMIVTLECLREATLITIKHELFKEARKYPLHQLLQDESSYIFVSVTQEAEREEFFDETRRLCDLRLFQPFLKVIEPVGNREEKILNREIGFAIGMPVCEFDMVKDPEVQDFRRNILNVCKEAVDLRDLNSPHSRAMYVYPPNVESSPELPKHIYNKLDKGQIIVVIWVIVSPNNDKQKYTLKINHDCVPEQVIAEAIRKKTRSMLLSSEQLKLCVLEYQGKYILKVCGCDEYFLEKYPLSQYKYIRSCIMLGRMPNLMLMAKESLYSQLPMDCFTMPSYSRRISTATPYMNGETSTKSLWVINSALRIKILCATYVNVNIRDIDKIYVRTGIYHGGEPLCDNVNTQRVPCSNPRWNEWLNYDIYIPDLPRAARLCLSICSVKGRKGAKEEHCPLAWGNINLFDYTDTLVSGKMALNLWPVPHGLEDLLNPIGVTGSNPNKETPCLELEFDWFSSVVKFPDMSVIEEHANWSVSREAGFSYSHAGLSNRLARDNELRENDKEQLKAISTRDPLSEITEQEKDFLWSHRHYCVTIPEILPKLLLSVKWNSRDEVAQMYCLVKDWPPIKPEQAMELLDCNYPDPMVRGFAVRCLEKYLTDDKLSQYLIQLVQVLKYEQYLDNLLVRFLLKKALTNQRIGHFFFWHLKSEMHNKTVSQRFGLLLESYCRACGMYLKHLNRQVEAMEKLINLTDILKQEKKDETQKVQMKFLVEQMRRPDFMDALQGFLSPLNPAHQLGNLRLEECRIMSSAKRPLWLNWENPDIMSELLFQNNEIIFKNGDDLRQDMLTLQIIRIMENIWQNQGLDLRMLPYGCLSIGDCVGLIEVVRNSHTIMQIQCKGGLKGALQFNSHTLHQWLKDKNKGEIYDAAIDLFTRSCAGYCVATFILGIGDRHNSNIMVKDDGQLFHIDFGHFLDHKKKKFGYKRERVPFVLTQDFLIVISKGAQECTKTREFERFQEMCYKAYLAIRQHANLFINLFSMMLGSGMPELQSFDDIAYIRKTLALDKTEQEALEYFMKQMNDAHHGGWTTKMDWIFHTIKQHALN
Chain of PI3K-alpha (P27986 whole entry partner, species assumed): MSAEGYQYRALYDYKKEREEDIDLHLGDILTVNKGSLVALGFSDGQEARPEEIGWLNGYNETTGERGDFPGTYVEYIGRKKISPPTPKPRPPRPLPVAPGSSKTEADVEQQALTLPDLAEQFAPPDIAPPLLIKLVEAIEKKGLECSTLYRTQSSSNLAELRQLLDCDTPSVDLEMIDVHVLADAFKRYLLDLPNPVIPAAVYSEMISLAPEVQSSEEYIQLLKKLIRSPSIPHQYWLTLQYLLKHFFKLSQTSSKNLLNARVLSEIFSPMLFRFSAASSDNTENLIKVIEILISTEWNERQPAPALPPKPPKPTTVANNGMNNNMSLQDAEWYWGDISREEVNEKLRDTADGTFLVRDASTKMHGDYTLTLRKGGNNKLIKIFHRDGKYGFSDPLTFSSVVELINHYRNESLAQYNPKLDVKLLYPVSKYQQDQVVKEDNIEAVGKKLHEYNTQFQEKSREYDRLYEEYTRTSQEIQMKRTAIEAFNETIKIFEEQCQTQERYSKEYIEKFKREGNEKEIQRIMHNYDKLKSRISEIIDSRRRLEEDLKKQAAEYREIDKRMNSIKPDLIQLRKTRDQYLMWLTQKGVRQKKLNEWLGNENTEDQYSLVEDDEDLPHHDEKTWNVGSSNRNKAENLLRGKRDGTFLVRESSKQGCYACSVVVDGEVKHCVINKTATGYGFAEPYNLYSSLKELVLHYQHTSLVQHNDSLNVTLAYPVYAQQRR
Chain of PI3K-gamma (P48736 whole entry, species assumed): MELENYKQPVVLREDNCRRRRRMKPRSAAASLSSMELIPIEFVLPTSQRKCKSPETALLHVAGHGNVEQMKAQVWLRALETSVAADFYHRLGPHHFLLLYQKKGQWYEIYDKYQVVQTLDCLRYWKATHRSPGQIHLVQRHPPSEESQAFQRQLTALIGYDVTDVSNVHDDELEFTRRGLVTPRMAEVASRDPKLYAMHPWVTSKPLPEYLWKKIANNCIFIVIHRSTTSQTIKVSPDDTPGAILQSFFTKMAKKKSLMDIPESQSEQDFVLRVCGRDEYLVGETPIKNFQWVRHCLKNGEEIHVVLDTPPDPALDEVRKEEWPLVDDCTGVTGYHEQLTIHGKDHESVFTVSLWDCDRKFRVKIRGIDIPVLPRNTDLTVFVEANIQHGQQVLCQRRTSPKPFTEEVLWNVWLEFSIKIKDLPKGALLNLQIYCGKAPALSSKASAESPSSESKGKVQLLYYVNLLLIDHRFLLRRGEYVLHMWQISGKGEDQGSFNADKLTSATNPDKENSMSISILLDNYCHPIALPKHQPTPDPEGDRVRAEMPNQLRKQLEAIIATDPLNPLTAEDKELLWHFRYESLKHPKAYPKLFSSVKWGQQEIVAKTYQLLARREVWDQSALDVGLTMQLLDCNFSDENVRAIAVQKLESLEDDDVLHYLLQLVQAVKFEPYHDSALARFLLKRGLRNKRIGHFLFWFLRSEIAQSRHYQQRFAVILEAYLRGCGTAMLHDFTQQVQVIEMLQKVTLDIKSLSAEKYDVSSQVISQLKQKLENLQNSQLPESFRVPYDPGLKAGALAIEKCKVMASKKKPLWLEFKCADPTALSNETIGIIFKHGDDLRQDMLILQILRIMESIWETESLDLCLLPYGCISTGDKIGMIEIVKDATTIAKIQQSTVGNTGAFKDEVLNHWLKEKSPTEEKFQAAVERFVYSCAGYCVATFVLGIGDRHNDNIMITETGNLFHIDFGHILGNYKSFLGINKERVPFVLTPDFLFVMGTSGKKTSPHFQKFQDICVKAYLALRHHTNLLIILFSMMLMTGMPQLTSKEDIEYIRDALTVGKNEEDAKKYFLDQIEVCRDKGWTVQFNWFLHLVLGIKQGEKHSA

On to `COC(=O)Nc1ccc2c(c1)C(=O)/C(=C/c1cn(CCCN(C)C)c3ccc(OC)cc13)O2` [Compound 538, methyl [(2Z)-2-({1-[3-(dimethylamino)propyl]-5-methoxy-1H-indol-3-yl}methylene)-3-oxo-2,3-dihydro-1-benzofuran-5-yl]carbamate], for which the IC50 was 820 nM at PI3K-alpha and > 10000 nM at PI3K-gamma.

As to `CNC(=O)Nc1ccc2c(c1)C(=O)/C(=C/c1cn(C)c3cccc(-c4ccccc4)c13)O2` [Compound 528, 1-methyl-3-{(2Z)-2-[(1-methyl-4-phenyl-1H-indol-3-yl)methylene]-3-oxo-2,3-dihydro-1-benzofuran-5-yl}urea], the IC50 on PI3K-alpha and at PI3K-gamma was > 10000 nM in each case.

Regarding `CNC(=O)Nc1ccc2c(c1)C(=O)/C(=C/c1c(-c3nc(C4CC4)no3)[nH]c3ccc(OC)cc13)O2` [Compound 592, 1-[(2Z)-2-{[2-(3-cyclopropyl-1,2,4-oxadiazol-5-yl)-5-methoxy-1H-indol-3-yl]methylene}-3-oxo-2,3-dihydro-1-benzofuran-5-yl]-3-methylurea], the results for the IC50 on PI3K-alpha and at PI3K-gamma were 5.5 nM and 8900 nM, respectively.

As for `Cn1cc(C=C2Oc3cc(O)cc(O)c3C2=O)c2c(-c3ccccc3)cccc21` [Example 268, 4,6-dihydroxy-2-[(1-methyl-4-phenyl-1H-indol-3-yl)methylene]-1-benzofuran-3(2H)-one], the IC50 at PI3K-alpha was > 5740 nM; at PI3K-gamma, 2690 nM.

For the compound `C=CCNC(=O)Nc1ccc2c(c1)C(=O)/C(=C/c1cn(CCN3CCN(C)CC3)c3ccc(OC)cc13)O2` [Compound 550, 1-allyl-3-[(2Z)-2-({5-methoxy-1-[2-(4-methylpiperazin-1-yl)ethyl]-1H-indol-3-yl}methylene)-3-oxo-2,3-dihydro-1-benzofuran-5-yl]urea], the IC50 came to 64.5 nM on PI3K-alpha and 1130 nM against PI3K-gamma.

Take `CCc1cc(OC)cc2c(/C=C3\Oc4cccc(O)c4C3=O)cn(CCCC#N)c12` [Compound 475, 4-{7-ethyl-3-[(Z)-(4-hydroxy-3-oxo-1-benzofuran-2(3H)-ylidene)methyl]-5-methoxy-1H-indol-1-yl}butanenitrile]: the IC50 on PI3K-alpha and at PI3K-gamma was > 10000 nM throughout.

Turning to `CNC(=O)Nc1ccc2c(c1)C(=O)/C(=C/c1c(C3CCC3)n(CCN3CCN(C)CC3)c3ccc(OC)cc13)O2` [Compound 562, 1-[(2Z)-2-({2-cyclobutyl-5-methoxy-1-[2-(4-methylpiperazin-1-yl)ethyl]-1H-indol-3-yl}methylene)-3-oxo-2,3-dihydro-1-benzofuran-5-yl]-3-methylurea], the figures for the IC50 at PI3K-alpha and on PI3K-gamma were 2.85 nM and 209 nM, respectively.

As for `CNC(=O)Nc1ccc2c(c1)C(=O)/C(=C/c1c(C)n(CCN3CCCCC3)c3ccc(OC)cc13)O2` [Compound 609, 1-[(2Z)-2-{[5-methoxy-2-methyl-1-(2-piperidin-1-ylethyl)-1H-indol-3-yl]methylidene}-3-oxo-2,3-dihydro-1-benzofuran-5-yl]-3-methylurea], the IC50 at PI3K-alpha was 15 nM; against PI3K-gamma, 446 nM.

Regarding `CNC(=O)Nc1ccc2c(c1)C(=O)/C(=C/c1c(-c3nc(C(C)C)no3)[nH]c3ccc(OC)cc13)O2` [Compound 591, 1-[(2Z)-2-{[2-(3-isopropyl-1,2,4-oxadiazol-5-yl)-5-methoxy-1H-indol-3-yl]methylene}-3-oxo-2,3-dihydro-1-benzofuran-5-yl]-3-methylurea], the IC50 was found to be 8 nM on PI3K-alpha and 9500 nM on PI3K-gamma.

On to `COc1cc2[nH]cc(C=C3Oc4cc(O)cc(O)c4C3=O)c2cc1OC` [Example 181, 2-[(5,6-dimethoxy-1H-indol-3-yl)methylene]-4,6-dihydroxy-1-benzofuran-3(2H)-one], for which the values for the IC50 at PI3K-alpha and against PI3K-gamma were 502 nM and 1750 nM, respectively.

For `CNCCNC(=O)Nc1ccc2c(c1)C(=O)/C(=C/c1cn(CCN3CCN(C)CC3)c3ccc(OC)cc13)O2` [Compound 563, 1-[(2Z)-2-({5-methoxy-1-[2-(4-methylpiperazin-1-yl)ethyl]-1H-indol-3-yl}methylene)-3-oxo-2,3-dihydro-1-benzofuran-5-yl]-3-[2-(methylamino)ethyl]urea], the IC50 worked out at 35.5 nM at PI3K-alpha and 5220 nM against PI3K-gamma.

Turning to `CNC(=O)Nc1ccc2c(c1)C(=O)/C(=C/c1c(CN(C)C)[nH]c3ccc(OC)cc13)O2` [Compound 612, 1-[(2Z)-2-({2-[(dimethylamino)methyl]-5-methoxy-1H-indol-3-yl}methylidene)-3-oxo-2,3-dihydro-1-benzofuran-5-yl]-3-methylurea], the IC50 turned out to be 15.5 nM at PI3K-alpha and 121 nM against PI3K-gamma.

As to `COc1ccc2c(c1)c(/C=C1\Oc3ccc(NC(=O)NCCCO)cc3C1=O)cn2CCCN(C)C` [Compound 568, 1-[(2Z)-2-({1-[3-(dimethylamino)propyl]-5-methoxy-1H-indol-3-yl}methylene)-3-oxo-2,3-dihydro-1-benzofuran-5-yl]-3-(3-hydroxypropyl)urea], the half-maximal inhibitory concentration (IC50) at PI3K-alpha came to 477 nM; against PI3K-gamma it was 3390 nM.

As to `COc1ccc2[nH]cc(/C=C3\Oc4ccc(NC(=O)Nc5ccccc5)cc4C3=O)c2c1` [Compound 485, 1-{(2Z)-2-[(5-methoxy-1H-indol-3-yl)methylene]-3-oxo-2,3-dihydro-1-benzofuran-5-yl}-3-phenylurea], the IC50 on PI3K-alpha and at PI3K-gamma was > 10000 nM in each case.

With `CNC(=O)c1ccc2c(c1)C(=O)/C(=C/c1cn(CCCN(C)C)c3ccc(OC)cc13)O2` [Compound 539, (2Z)-2-({1-[3-(dimethylamino)propyl]-5-methoxy-1H-indol-3-yl}methylene)-Nmethyl-3-oxo-2,3-dihydro-1-benzofuran-5-carboxamide], the IC50 on PI3K-alpha and at PI3K-gamma was > 10000 nM in each case.

Regarding `COc1ccc2c(c1)c(/C=C1\Oc3ccc(NC(N)=O)cc3C1=O)cn2CCN1CCN(C)CC1` [Compound 551, 1-[(2Z)-2-({5-methoxy-1-[2-(4-methylpiperazin-1-yl)ethyl]-1H-indol-3-yl}methylene)-3-oxo-2,3-dihydro-1-benzofuran-5-yl]urea], the IC50 is 192 nM at PI3K-alpha and 3150 nM against PI3K-gamma.

As to `COc1ccc2[nH]cc(/C=C3\Oc4cc(O)cc(C(N)=O)c4C3=O)c2c1` [Compound 518, (2Z)-6-hydroxy-2-[(5-methoxy-1H-indol-3-yl)methylene]-3-oxo-2,3-dihydro-1-benzofuran-4-carboxamide], the half-maximal inhibitory concentration (IC50) is 451 nM at PI3K-alpha and 1150 nM at PI3K-gamma.

As for `Cn1cc(/C=C2\Oc3ccc(NC(=O)OC(C)(C)C)cc3C2=O)c2c(-c3ccccc3)cccc21` [Compound 532, tert-butyl {(2Z)-2-[(1-methyl-4-phenyl-1H-indol-3-yl)methylene]-3-oxo-2,3-dihydro-1-benzofuran-5-yl}carbamate], the IC50 on PI3K-alpha and on PI3K-gamma was > 10000 nM each time.

Regarding `CNC(=O)Nc1ccc2c(c1)C(=O)/C(=C/c1c(C#N)[nH]c3ccc(OC)cc13)O2` [Compound 604, 1-{(2Z)-2-[(2-cyano-5-methoxy-1H-indol-3-yl)methylidene]-3-oxo-2,3-dihydro-1-benzofuran-5-yl}-3-methylurea], the results for the IC50 at PI3K-alpha and at PI3K-gamma were 10.5 nM and > 10000 nM, respectively.

`CNC(=O)Nc1ccc2c(c1)C(=O)/C(=C/c1c(-c3ccccc3)n(CCN3CCN(C)CC3)c3ccc(OC)cc13)O2` [Compound 575, 1-[(2Z)-2-({5-methoxy-1-[2-(4-methylpiperazin-1-yl)ethyl]-2-phenyl-1H-indol-3-yl}methylene)-3-oxo-2,3-dihydro-1-benzofuran-5-yl]-3-methylurea]: the results for the IC50 on PI3K-alpha and at PI3K-gamma were 1.25 nM and 206 nM, respectively.

Consider `CCCCNC(=O)Nc1ccc2c(c1)C(=O)/C(=C/c1c[nH]c3ccc(OC)cc13)O2` [Compound 487, 1-butyl-3-{(2Z)-2-[(5-methoxy-1H-indol-3-yl)methylene]-3-oxo-2,3-dihydro-1-benzofuran-5-yl}urea], for which the IC50 at PI3K-alpha was 10200 nM; at PI3K-gamma it was > 10000 nM.

Consider `CNC(=O)Nc1ccc2c(c1)C(=O)/C(=C/c1c(-c3c(C)noc3C)[nH]c3ccc(OC)cc13)O2` [Compound 581, 1-[(2Z)-2-{[2-(3,5-dimethylisoxazol-4-yl)-5-methoxy-1H-indol-3-yl]methylene}-3-oxo-2,3-dihydro-1-benzofuran-5-yl]-3-methylurea], for which the IC50 on PI3K-alpha worked out at 2 nM; against PI3K-gamma it was 26.5 nM.

`COc1ccc2[nH]c(-c3ccccc3)c(C=C3Oc4c(ccc(O)c4O)C3=O)c2c1` [Example 71, 6,7-dihydroxy-2-[(5-methoxy-2-phenyl-1H-indol-3-yl)methylene]-1-benzofuran-3(2H)-one]: the IC50 was determined as 74.2 nM at PI3K-alpha and 439 nM at PI3K-gamma.

As to `COc1ccc2[nH]cc(C=C3Oc4c(OC)cccc4C3=O)c2c1` [Compound 483, 7-methoxy-2-[(5-methoxy-1H-indol-3-yl)methylene]-1-benzofuran-3(2H)-one], the IC50 on PI3K-alpha came out at 9860 nM; at PI3K-gamma it was 5220 nM.

Consider `CNC(=O)Nc1ccc2c(c1)C(=O)/C(=C/c1c[nH]c3c(CCCN4CCN(C)CC4)cc(OC)cc13)O2` [Compound 583, 1-[(2Z)-2-({5-methoxy-7-[3-(4-methylpiperazin-1-yl)propyl]-1H-indol-3-yl}methylene)-3-oxo-2,3-dihydro-1-benzofuran-5-yl]-3-methylurea], for which the values for the IC50 at PI3K-alpha and on PI3K-gamma were 222 nM and 6490 nM, respectively.

What is called IC50 is the concentration that inhibits the measured activity by half.
